{
  "source": "patent US6355799B1",
  "about": "“Substituted benzene compounds, process for their preparation, and herbicidal and defoliant compositions containing them” (ISK Americas Incorporated, priority 1997, dated 2002)",
  "format_in_all_cases": "in vivo",
  "key": {"[1]": {"tested_on": "lambsquarters (Chenopodium album, CHEAL)", "assay": "Pre-emerge test, greenhouse herbicide activity screening", "conditions": "phytotoxicity rating 0-100, 14 days after application", "summary_of_the_method": "(§1)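 Sandy loam pots; pre-emerge: sown 1 d pre-spray, surface-watered after, then bottom-watered. Post-emerge: sown 8–21 d before, 2–3 leaf stage, + 0.25% v/v NIS, bottom-watered. Acetone, 187 l/ha track spray, 15–1000 g ai/ha. 0–100 injury score, day 14.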"}, "[2]": {"tested_on": "ivyleaf morningglory (Ipomoea hederacea, IPOHE)", "assay": "Pre-emerge test, greenhouse herbicide activity screening", "conditions": "phytotoxicity rating 0-100, 14 days after application", "summary_of_the_method": "as §1"}, "[3]": {"tested_on": "green foxtail (Setaria viridis, SETVI)", "assay": "Pre-emerge test, greenhouse herbicide activity screening", "conditions": "phytotoxicity rating 0-100, 14 days after application", "summary_of_the_method": "as §1"}, "[4]": {"tested_on": "velvetleaf (Abutilon theophrasti, ABUTH)", "assay": "Pre-emerge test, greenhouse herbicide activity screening", "conditions": "phytotoxicity rating 0-100, 14 days after application", "summary_of_the_method": "as §1"}, "[5]": {"tested_on": "large crabgrass (Digitaria sanguinalis, DIGSA)", "assay": "Pre-emerge test, greenhouse herbicide activity screening", "conditions": "phytotoxicity rating 0-100, 14 days after application", "summary_of_the_method": "as §1"}, "[6]": {"tested_on": "barnyardgrass (Echinochloa crus-galli, ECHCG)", "assay": "Pre-emerge test, greenhouse herbicide activity screening", "conditions": "phytotoxicity rating 0-100, 14 days after application", "summary_of_the_method": "as §1"}, "[7]": {"tested_on": "johnsongrass (Sorghum halepense, SORHA)", "assay": "Pre-emerge test, greenhouse herbicide activity screening", "conditions": "phytotoxicity rating 0-100, 14 days after application", "summary_of_the_method": "as §1"}, "[8]": {"tested_on": "common ragweed (Ambrosia artemisizfolia L., AMBEL)", "assay": "Pre-emerge test, greenhouse herbicide activity screening", "conditions": "phytotoxicity rating 0-100, 14 days after application", "summary_of_the_method": "as §1"}, "[9]": {"tested_on": "sicklepod (Cassia obtusifolia, CASOB)", "assay": "Pre-emerge test, greenhouse herbicide activity screening", "conditions": "phytotoxicity rating 0-100, 14 days after application", "summary_of_the_method": "as §1"}, "[10]": {"tested_on": "upland rice (Oryza sp., var. Tebonnet, RICE)", "assay": "Pre-emerge test, crop safety", "conditions": "crop damage rating 0-100, 14 days after application", "summary_of_the_method": "(§2)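 Rating: 0–100 visual injury, 14 DAA. Application: acetone, 187 l/ha, 15–1000 g ai/ha, flat-fan track sprayer with nozzle 40–45 cm above soil or canopy. Post-emerge runs used 0.25% v/v surfactant on 2–3 leaf plants.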"}, "[11]": {"tested_on": "field corn (Zea mays L., var. Dekalb 535, CORN)", "assay": "Pre-emerge test, crop safety", "conditions": "crop damage rating 0-100, 14 days after application", "summary_of_the_method": "as §2"}, "[12]": {"tested_on": "upland rice (Oryza sp., var. Tebonnet, RICE)", "assay": "Post-emerge test, crop safety", "conditions": "post-emerge, 14 days after application, rating scale 0-100", "summary_of_the_method": "as §1"}, "[13]": {"tested_on": "field corn (Zea mays L., var. Dekalb 535, CORN)", "assay": "Post-emerge test, crop safety", "conditions": "post-emerge, 14 days after application, rating scale 0-100", "summary_of_the_method": "as §1"}, "[14]": {"tested_on": "lambsquarters (Chenopodium album, CHEAL)", "assay": "Post-emerge test, greenhouse herbicide activity screening", "conditions": "post-emerge, 14 days after application, rating scale 0-100", "summary_of_the_method": "(§3)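 Compounds in acetone were track-sprayed at 187 l/ha, 15–1000 g ai/ha, onto sandy loam pots. Pre-emerge seeds were sown one day before spraying, with surface watering afterwards. Post-emerge plants were at the 2–3 leaf stage and sprayed with 0.25% v/v non-ionic surfactant. Injury was rated 0–100 at 14 days.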"}, "[15]": {"tested_on": "ivyleaf morningglory (Ipomoea hederacea, IPOHE)", "assay": "Post-emerge test, greenhouse herbicide activity screening", "conditions": "post-emerge, 14 days after application, rating scale 0-100", "summary_of_the_method": "as §3"}, "[16]": {"tested_on": "green foxtail (Setaria viridis, SETVI)", "assay": "Post-emerge test, greenhouse herbicide activity screening", "conditions": "post-emerge, 14 days after application, rating scale 0-100", "summary_of_the_method": "as §3"}, "[17]": {"tested_on": "velvetleaf (Abutilon theophrasti, ABUTH)", "assay": "Post-emerge test, greenhouse herbicide activity screening", "conditions": "post-emerge, 14 days after application, rating scale 0-100", "summary_of_the_method": "as §3"}, "[18]": {"tested_on": "large crabgrass (Digitaria sanguinalis, DIGSA)", "assay": "Post-emerge test, greenhouse herbicide activity screening", "conditions": "post-emerge, 14 days after application, rating scale 0-100", "summary_of_the_method": "as §3"}, "[19]": {"tested_on": "barnyardgrass (Echinochloa crus-galli, ECHCG)", "assay": "Post-emerge test, greenhouse herbicide activity screening", "conditions": "post-emerge, 14 days after application, rating scale 0-100", "summary_of_the_method": "as §3"}, "[20]": {"tested_on": "johnsongrass (Sorghum halepense, SORHA)", "assay": "Post-emerge test, greenhouse herbicide activity screening", "conditions": "post-emerge, 14 days after application, rating scale 0-100", "summary_of_the_method": "as §3"}, "[21]": {"tested_on": "redroot pigweed (Amaranthus retroflexus, AMARE)", "assay": "Post-emerge test, greenhouse herbicide activity screening", "conditions": "post-emerge, 14 days after application", "summary_of_the_method": "as §3"}, "[22]": {"tested_on": "sicklepod (Cassia obtusifolia, CASOB)", "assay": "Post-emerge test, greenhouse herbicide activity screening", "conditions": "post-emerge, 14 days after application, rating scale 0-100", "summary_of_the_method": "as §3"}, "[23]": {"tested_on": "redroot pigweed (Amaranthus retroflexus, AMARE)", "assay": "Pre-emerge test, greenhouse herbicide activity screening", "conditions": "phytotoxicity rating 0-100, 14 days after application", "summary_of_the_method": "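Plants grown in 10 cm pots of sandy loam mix received acetone-dissolved compounds through a moving flat-fan nozzle. Doses ranged from 15 to 1000 g ai/ha. Pre-emerge pots were seeded one day earlier, post-emerge pots 8–21 days earlier. Fourteen days on, each pot was graded 0–100 for damage.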"}},
  "data": [
    {"compound": "CCCCCC(=O)Nc1c(OC)c(Cl)cc(F)c1-n1c(=O)cc(C(F)(F)F)n(C)c1=O", "note": "[2-198]", "values": [
      {"measurement": "Pre-emerge Herbicidal Activity CHEAL", "setting": "[1]; 63 g ai/ha", "result": 100},
      {"measurement": "Pre-emerge Herbicidal Activity CHEAL", "setting": "[1]; 250 g ai/ha", "result": 100},
      {"measurement": "Pre-emerge Herbicidal Activity IPOHE", "setting": "[2]; 63 g ai/ha", "result": 100},
      {"measurement": "Pre-emerge Herbicidal Activity IPOHE", "setting": "[2]; 250 g ai/ha", "result": 100},
      {"measurement": "Pre-emerge Herbicidal Activity SETVI", "setting": "[3]; 63 g ai/ha", "result": 90},
      {"measurement": "Pre-emerge Herbicidal Activity SETVI", "setting": "[3]; 250 g ai/ha", "result": 100},
      {"measurement": "Pre-emerge Herbicidal Activity ABUTH", "setting": "[4]; 63 g ai/ha", "result": 100},
      {"measurement": "Pre-emerge Herbicidal Activity ABUTH", "setting": "[4]; 250 g ai/ha", "result": 100},
      {"measurement": "Pre-emerge Herbicidal Activity DIGSA", "setting": "[5]; 63 g ai/ha", "result": 100},
      {"measurement": "Pre-emerge Herbicidal Activity DIGSA", "setting": "[5]; 250 g ai/ha", "result": 100},
      {"measurement": "Pre-emerge Herbicidal Activity ECHCG", "setting": "[6]; 63 g ai/ha", "result": 50},
      {"measurement": "Pre-emerge Herbicidal Activity ECHCG", "setting": "[6]; 250 g ai/ha", "result": 100},
      {"measurement": "Pre-emerge Herbicidal Activity SORHA", "setting": "[7]; 63 g ai/ha", "result": 50},
      {"measurement": "Pre-emerge Herbicidal Activity SORHA", "setting": "[7]; 250 g ai/ha", "result": 99},
      {"measurement": "Pre-emerge Herbicidal Activity AMBEL", "setting": "[8]; 63 g ai/ha", "result": 100},
      {"measurement": "Pre-emerge Herbicidal Activity AMBEL", "setting": "[8]; 250 g ai/ha", "result": 100},
      {"measurement": "Pre-emerge Herbicidal Activity CASOB", "setting": "[9]; 63 g ai/ha", "result": 50},
      {"measurement": "Pre-emerge Herbicidal Activity CASOB", "setting": "[9]; 250 g ai/ha", "result": 100},
      {"measurement": "Pre-emerge Herbicidal Activity RICE", "setting": "[10]; 63 g ai/ha", "result": 30},
      {"measurement": "Pre-emerge Herbicidal Activity RICE", "setting": "[10]; 250 g ai/ha", "result": 80},
      {"measurement": "Pre-emerge Herbicidal Activity CORN", "setting": "[11]; 63 g ai/ha", "result": 50},
      {"measurement": "Pre-emerge Herbicidal Activity CORN", "setting": "[11]; 250 g ai/ha", "result": 90},
      {"measurement": "phytotoxicity rating RICE (crop damage)", "setting": "[12]; 63 g ai/ha", "result": 10},
      {"measurement": "phytotoxicity rating RICE (crop damage)", "setting": "[12]; 250 g ai/ha", "result": 30},
      {"measurement": "phytotoxicity rating CORN (crop damage)", "setting": "[13]; 63 g ai/ha", "result": 10},
      {"measurement": "phytotoxicity rating CORN (crop damage)", "setting": "[13]; 250 g ai/ha", "result": 40},
      {"measurement": "phytotoxicity rating CHEAL", "setting": "[14]; 63 g ai/ha", "result": 80},
      {"measurement": "phytotoxicity rating CHEAL", "setting": "[14]; 250 g ai/ha", "result": 90},
      {"measurement": "phytotoxicity rating IPOHE", "setting": "[15]; 63 g ai/ha", "result": 80},
      {"measurement": "phytotoxicity rating IPOHE", "setting": "[15]; 250 g ai/ha", "result": 100},
      {"measurement": "phytotoxicity rating SETVI", "setting": "[16]; 63 g ai/ha", "result": 10},
      {"measurement": "phytotoxicity rating SETVI", "setting": "[16]; 250 g ai/ha", "result": 10},
      {"measurement": "phytotoxicity rating ABUTH", "setting": "[17]; 63 g ai/ha", "result": 80},
      {"measurement": "phytotoxicity rating ABUTH", "setting": "[17]; 250 g ai/ha", "result": 100},
      {"measurement": "phytotoxicity rating DIGSA", "setting": "[18]; 63 g ai/ha", "result": 10},
      {"measurement": "phytotoxicity rating DIGSA", "setting": "[18]; 250 g ai/ha", "result": 10},
      {"measurement": "phytotoxicity rating ECHCG", "setting": "[19]; 63 g ai/ha", "result": 5},
      {"measurement": "phytotoxicity rating ECHCG", "setting": "[19]; 250 g ai/ha", "result": 5},
      {"measurement": "phytotoxicity rating SORHA", "setting": "[20]; 63 g ai/ha", "result": 0},
      {"measurement": "phytotoxicity rating SORHA", "setting": "[20]; 250 g ai/ha", "result": 50},
      {"measurement": "phytotoxicity rating AMARE", "setting": "[21]; 63 g ai/ha, rating scale 0-100 (0 no damage, 100 complete death)", "result": 80},
      {"measurement": "phytotoxicity rating AMARE", "setting": "[21]; 250 g ai/ha, rating scale 0-100", "result": 95},
      {"measurement": "phytotoxicity rating CASOB", "setting": "[22]; 63 g ai/ha", "result": 50},
      {"measurement": "phytotoxicity rating CASOB", "setting": "[22]; 250 g ai/ha", "result": 30},
      {"measurement": "Pre-emerge Herbicidal Activity AMARE", "setting": "[23]; 63 g ai/ha", "result": 100},
      {"measurement": "Pre-emerge Herbicidal Activity AMARE", "setting": "[23]; 250 g ai/ha", "result": 100}
    ]}
  ]
}
